From article PMC11157767 (Molecular Cancer, 2024)

Tested on: TRIM24-MET-i cells
Description: The number of unique and shared differentially expressed genes between each comparison are shown in parentheses. A linear regression line is depicted along with Pearson’s correlation coefficient (r) and its associated p-value. […] Common negatively enriched genesets between all three comparisons are in bold. c, Heatmaps showing expression of Hallmark_Myc_Target_v1/2 genes for indicated cells and treatment comparisons (TRIM-MET cells were treated in vitro, TFG-MET cells in vivo). Select leading edge genes from GSEA are labeled.

CNC(=O)c1ccc(-c2cnc3ncc(Cc4ccc5ncccc5c4)n3n2)cc1F [Capmatinib]
NES HALLMARK_ADIPOGENESIS (GSEA v. DMSO): -0.9589
NES HALLMARK_ALLOGRAFT_REJECTION (GSEA v. DMSO): -1.401
NES HALLMARK_ANDROGEN_RESPONSE (GSEA v. DMSO): -1.889
NES HALLMARK_APICAL_JUNCTION (GSEA v. DMSO): -1.091
NES HALLMARK_APICAL_SURFACE (GSEA v. DMSO): 1.792
NES HALLMARK_APOPTOSIS (GSEA v. DMSO): -1.59
NES HALLMARK_BILE_ACID_METABOLISM (GSEA v. DMSO): 1.602
NES HALLMARK_CHOLESTEROL_HOMEOSTASIS (GSEA v. DMSO): -1.359
NES HALLMARK_COAGULATION (GSEA v. DMSO): -1.635
NES HALLMARK_COMPLEMENT (GSEA v. DMSO): -1.904
NES HALLMARK_DNA_REPAIR (GSEA v. DMSO): -0.965
NES HALLMARK_E2F_TARGETS (GSEA v. DMSO): -1.195
NES HALLMARK_EPITHELIAL_MESENCHYMAL_TRANSITION (GSEA v. DMSO): -1.076
NES HALLMARK_ESTROGEN_RESPONSE_EARLY (GSEA v. DMSO): -1.483
NES HALLMARK_ESTROGEN_RESPONSE_LATE (GSEA v. DMSO): -1.018
NES HALLMARK_FATTY_ACID_METABOLISM (GSEA v. DMSO): 0.99
NES HALLMARK_G2M_CHECKPOINT (GSEA v. DMSO): -1.318
NES HALLMARK_GLYCOLYSIS (GSEA v. DMSO): -1.3547
NES HALLMARK_HEDGEHOG_SIGNALING (GSEA v. DMSO): -1.3433
NES HALLMARK_HEME_METABOLISM (GSEA v. DMSO): 1.243
NES HALLMARK_HYPOXIA (GSEA v. DMSO): -1.387
NES HALLMARK_IL2_STAT5_SIGNALING (GSEA v. DMSO): -2.015
NES HALLMARK_IL6_JAK_STAT3_SIGNALING (GSEA v. DMSO): -0.9282
NES HALLMARK_INFLAMMATORY_RESPONSE (GSEA v. DMSO): -1.659
NES HALLMARK_INTERFERON_ALPHA_RESPONSE (GSEA v. DMSO): 1.273
NES HALLMARK_INTERFERON_GAMMA_RESPONSE (GSEA v. DMSO): -0.9862
NES HALLMARK_KRAS_SIGNALING_DN (GSEA v. DMSO): 1.126
NES HALLMARK_KRAS_SIGNALING_UP (GSEA v. DMSO): -1.881
NES HALLMARK_MITOTIC_SPINDLE (GSEA v. DMSO): -1.303
NES HALLMARK_MTORC1_SIGNALING (GSEA v. DMSO): -2.1602
NES HALLMARK_MYC_TARGETS_V1 (GSEA v. DMSO): -2.499
NES HALLMARK_MYC_TARGETS_V2 (GSEA v. DMSO): -2.697
NES HALLMARK_MYOGENESIS (GSEA v. DMSO): -0.8301
NES HALLMARK_NOTCH_SIGNALING (GSEA v. DMSO): -1.186
NES HALLMARK_OXIDATIVE_PHOSPHORYLATION (GSEA v. DMSO): -1.201
NES HALLMARK_P53_PATHWAY (GSEA v. DMSO): -0.9833
NES HALLMARK_PANCREAS_BETA_CELLS (GSEA v. DMSO): 1.071
NES HALLMARK_PEROXISOME (GSEA v. DMSO): 1.028
NES HALLMARK_PI3K_AKT_MTOR_SIGNALING (GSEA v. DMSO): -1.164
NES HALLMARK_PROTEIN_SECRETION (GSEA v. DMSO): -1.171
NES HALLMARK_REACTIVE_OXYGEN_SPECIES_PATHWAY (GSEA v. DMSO): -1.072
NES HALLMARK_SPERMATOGENESIS (GSEA v. DMSO): 0.7417
NES HALLMARK_TGF_BETA_SIGNALING (GSEA v. DMSO): -1.868
NES HALLMARK_TNFA_SIGNALING_VIA_NFKB (GSEA v. DMSO): -2.324
NES HALLMARK_UV_RESPONSE_DN (GSEA v. DMSO): -1.271
NES HALLMARK_UV_RESPONSE_UP (GSEA v. DMSO): -1.537
NES HALLMARK_WNT_BETA_CATENIN_SIGNALING (GSEA v. DMSO): -1.2104
NES HALLMARK_XENOBIOTIC_METABOLISM (GSEA v. DMSO): 0.8191
NES KRIGE_RESPONSE_TO_TOSEDOSTAT_6HR_DN (GSEA v. DMSO): -2.5861
NES KRIGE_RESPONSE_TO_TOSEDOSTAT_24HR_DN (GSEA v. DMSO): -2.743
NES LEE_BMP2_TARGETS_DN (GSEA v. DMSO): -2.881
NES PUJANA_CHEK2_PCC_NETWORK (GSEA v. DMSO): -2.452
NES WEI_MYCN_TARGETS_WITH_E_BOX (GSEA v. DMSO): -2.939
ES GOBP_NCRNA_METABOLIC_PROCESS (GSEA, v. DMSO): -0.717
ES GOBP_NCRNA_PROCESSING (GSEA, v. DMSO): -0.737
ES GOBP_RIBONUCLEOPROTEIN_COMPLEX_BIOGENESIS (GSEA, v. DMSO): -0.7048
ES GOBP_RIBOSOME_BIOGENESIS (GSEA, v. DMSO): -0.7793
ES GOBP_RRNA_METABOLIC_PROCESS (GSEA, v. DMSO): -0.7679
ES GOCC_MITOCHONDRIAL_ENVELOPE (GSEA, v. DMSO): -0.4986
ES GOCC_NUCLEOLUS (GSEA, v. DMSO): -0.546
ES GOCC_ORGANELLE_INNER_MEMBRANE (GSEA, v. DMSO): -0.5385
ES GOCC_PRERIBOSOME (GSEA, v. DMSO): -0.8527
ES GOCC_RIBONUCLEOPROTEIN_COMPLEX (GSEA, v. DMSO): -0.5996
ES GOMF_CATALYTIC_ACTIVITY_ACTING_ON_A_TRNA (GSEA, v. DMSO): -0.6843
ES GOMF_CATALYTIC_ACTIVITY_ACTING_ON_RNA (GSEA, v. DMSO): -0.6193
ES GOMF_RNA_HELICASE_ACTIVITY (GSEA, v. DMSO): -0.6953
ES GOMF_RRNA_BINDING (GSEA, v. DMSO): -0.7411
ES GOMF_STRUCTURAL_CONSTITUENT_OF_RIBOSOME (GSEA, v. DMSO): -0.6124
NES GOBP_NCRNA_METABOLIC_PROCESS (GSEA, v. DMSO): -2.6866
NES GOBP_NCRNA_PROCESSING (GSEA, v. DMSO): -2.741
NES GOBP_RIBONUCLEOPROTEIN_COMPLEX_BIOGENESIS (GSEA, v. DMSO): -2.64
NES GOBP_RIBOSOME_BIOGENESIS (GSEA, v. DMSO): -2.85
NES GOBP_RRNA_METABOLIC_PROCESS (GSEA, v. DMSO): -2.741
NES GOCC_MITOCHONDRIAL_ENVELOPE (GSEA, v. DMSO): -1.908
NES GOCC_NUCLEOLUS (GSEA, v. DMSO): -2.1002
NES GOCC_ORGANELLE_INNER_MEMBRANE (GSEA, v. DMSO): -2.039
NES GOCC_PRERIBOSOME (GSEA, v. DMSO): -2.662
NES GOCC_RIBONUCLEOPROTEIN_COMPLEX (GSEA, v. DMSO): -2.294
NES GOMF_CATALYTIC_ACTIVITY_ACTING_ON_A_TRNA (GSEA, v. DMSO): -2.236
NES GOMF_CATALYTIC_ACTIVITY_ACTING_ON_RNA (GSEA, v. DMSO): -2.299
NES GOMF_RNA_HELICASE_ACTIVITY (GSEA, v. DMSO): -2.194
NES GOMF_RRNA_BINDING (GSEA, v. DMSO): -2.258
NES GOMF_STRUCTURAL_CONSTITUENT_OF_RIBOSOME (GSEA, v. DMSO): -2.138
